Common to all, as to type: cell-based
In assay [1] the target is T1, Btk phosphorylation in Ramos cells (Homo sapiens, UniProt Q06187).
T1 construct: endogenous in cells; host or cells: Ramos cells (ATCC)
Briefly: Pulse chase western blotting assay for irreversibility / binding property. The conditions noted are these: 100 nM for 45 mins, monitored 4, 6 and 8 h post removal. The method, then: Ramos cells were treated with Compound I-1 at 100 nM for 45 min. Cells were then re-suspended in compound free media and stimulated with 6 μg/ml IgM at 0, 4, 6 or 8 hours after compound removal. Cells were then lysed after 30 mm IgM stimulation. West blotting analysis were then performed.
Ramos cells were treated with Compounds at 100 nM for 45 min. Cells were then re-suspended in compound free media and stimulated with 6 μg/ml anti-IgM at 0, 4, 6 or 8 hours after compound removal. Cells were then lysed after 30 mm anti-IgM stimulation. Western blotting analysis was then performed.

Assay [2] deals with T2, Btk (Tyr223) phosphorylation in Ramos cells (Homo sapiens, UniProt Q06187).
T2 construct: endogenous in cells; host or cells: Ramos cells (ATCC)
T2 sequence (Q06187 whole entry): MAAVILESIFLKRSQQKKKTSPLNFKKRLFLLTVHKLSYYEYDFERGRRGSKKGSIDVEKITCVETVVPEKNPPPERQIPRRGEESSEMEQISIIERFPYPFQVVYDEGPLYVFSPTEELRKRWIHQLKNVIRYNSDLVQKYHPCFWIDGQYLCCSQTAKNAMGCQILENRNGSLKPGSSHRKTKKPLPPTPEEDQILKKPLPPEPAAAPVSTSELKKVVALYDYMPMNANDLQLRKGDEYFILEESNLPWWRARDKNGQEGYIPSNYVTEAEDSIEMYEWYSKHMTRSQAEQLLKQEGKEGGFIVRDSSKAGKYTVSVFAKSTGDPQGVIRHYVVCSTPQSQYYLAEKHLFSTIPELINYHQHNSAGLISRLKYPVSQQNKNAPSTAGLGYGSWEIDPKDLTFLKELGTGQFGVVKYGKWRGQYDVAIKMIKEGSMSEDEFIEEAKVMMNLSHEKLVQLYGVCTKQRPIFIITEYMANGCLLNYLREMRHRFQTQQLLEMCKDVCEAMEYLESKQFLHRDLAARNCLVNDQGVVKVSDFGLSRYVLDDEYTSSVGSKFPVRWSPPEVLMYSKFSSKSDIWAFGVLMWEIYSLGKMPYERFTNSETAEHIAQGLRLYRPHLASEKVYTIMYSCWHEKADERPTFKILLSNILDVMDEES
Nature of the assay: Western blotting assay for Btk (Example 73). The conditions noted are these: 45 min, 6 μg/mL anti-IgM, read-out: Btk Inhibition. The method in brief: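 Ramos cells pre-treated with compound for 45 min at room temperature, then stimulated with 6 μg/mL anti-IgM for 30 min and lysed. Phospho-Btk (Tyr223) measured by Western blot band densitometry; IC50 fitted by non-linear regression.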

In assay [3] the target is T3, free Btk protein from Ramos cells (Homo sapiens, UniProt Q06187).
T3 construct: endogenous in cells; host or cells: Ramos cells (ATCC)
T3 sequence (Q06187 whole entry): as above
Briefly: Btk target site occupancy ELISA assay. To be noted: for IC50: ELISA. The protocol: (§1) Ramos cells were treated with Compound I-1 at indicated concentrations for 1 h, followed by stimulation with 6 μg/mL of IgM for 30 mm, and then lysed. Lysates were incubated with Compound I-21 (biotin labeled) at a final concentration of 1 μM in a PBS, 0.05% Tween-20, 1% BSA solution while shaking for 1 h at room temperature. Samples were transferred to a streptavidin-coated 96-well ELISA plate and mixed while shaking for 1 h at room temperature. The Btk antibody (BD 611116, 1:1000 dilution in PBS+0.05% Tween-20+0.5% BSA) was then applied and incubated for 1 h at room temperature. After wash, goat anti-mouse-HRP (Pierce 31432, 1:1000 dilution in PBS+0.05% Tween-20+0.5% BSA) was added and incubated for 1 h at room temperature. The ELISA was developed with addition of tetramethyl benzidine (TMB) followed by Stop Solution and read at OD 450 nm.
as §1, with “Compounds” for “Compound I-1”, “anti-IgM” for “IgM”, “diluted” for “dilution”, “tetramethylbenzidine” for “tetramethyl benzidine”

Entries after “also recorded” stand apart in the source; their conditions may differ. Where two headings read alike, the source gives them in different places.

This note sets out measurements from US9920074B2 (ACEA BIOSCIENCES INC., priority 2013, dated 2018).

T1 sequence (Q06187 whole entry): as above

In the case of `C=CC(=O)Nc1cccc(Oc2nc(Nc3ccc(N4CCN(C)CC4)cc3)ncc2OC)c1` [Compound I-1, N-(3-(5-methoxy-2-(4-(4-methylpiperazin-1-yl)phenylamino)pyrimidin-4-yloxy)phenyl)acrylamide], in assay [1], the “inhibition of BTK phosphorylation after compound removal (irreversibility)” value was “remains inhibited up to 8 his; also recorded: long term effect of the inhibition was observed after compounds removal up to 8 hours; also recorded: remains inhibited up to 8 hrs; also recorded: irreversibly inhibited the BTK phosphorylation; also recorded: inhibited the Btk phosphorylation in Ramos cells after 8 hours of removal”. For the same compound, the IC50 is no more than 10 nM in assay [2]; no more than 10 nM in assay [3] (1 h, read-out: Btk Occupancy Assay (IC50)); 0.5 nM in assay [3] (read-out: BTK target site occupancy IC50). Moreover, the “OD 450 (average)” value in assay [3] (Compound I-1 0.2 nM) is listed as 0.1686; in assay [3] (Compound I-1 0.7 nM), 0.1811; in assay [3] (Compound I-1 3 nM), 0.1219; in assay [3] (Compound I-1 12 nM) it was −0.0161; in assay [3] (Compound I-1 47 nM) it was 0.0114; in assay [3] (Compound I-1 188 nM), −0.0207. Moreover, the “OD 450 (average)” value in assay [3] (Compound I-1 750 nM) is recorded as −0.0456; in assay [3] (Compound I-1 3000 nM) it was −0.0487. Further, the “free Btk” value in assay [3] (Compound I-1 0.2 nM) is 2414 pg; in assay [3] (Compound I-1 0.7 nM), 2592 pg; in assay [3] (Compound I-1 3 nM), 1747 pg; in assay [3] (Compound I-1 12 nM), -224 pg; in assay [3] (Compound I-1 47 nM) it was 168 pg; in assay [3] (Compound I-1 188 nM) it was -290 pg. Besides, the “free Btk” value in assay [3] (Compound I-1 750 nM) is -646 pg; in assay [3] (Compound I-1 3000 nM) it was -689 pg. In addition, the “occupancy of the Btk proteins” value in assay [3] (increasing concentrations) is “dose-dependent occupancy of the BTK proteins correlates with its inhibitory activity of BTK kinase”.
